From ChEMBL document CHEMBL4813917, “2-((1-Phenyl-1H-1,2,3-triazol-4-yl)methyl)-2-azabicyclo[3.2.1]octan-3-one derivatives: Simplification and modification of aconitine scaffold for the discovery of novel anticancer agents” (Eur J Med Chem, 2021)
Activity calls are given as the source filed them. No cut-off for these calls is given here.

Assays:
[1] = test system: LoVo; assay: Induction of apoptosis in human LoVo cells assessed as necrotic cells at 20 nM measured after 24 hrs by Annexin V/PI staining based flow cytometry method (reference value: 1.3%); format: functional
[2] = test system: SW-620; assay: Induction of apoptosis in human SW-620 cells assessed as late apoptotic cells at 80 nM measured after 24 hrs by Annexin V/PI staining based flow cytometry method (reference value: 1.3%); format: functional
[3] = test system: SW-620; assay: Induction of apoptosis in human SW-620 cells assessed as early apoptotic cells at 20 nM measured after 24 hrs by Annexin V/PI staining based flow cytometry method (reference value: 1.7%); format: functional
[4] = test system: SGC-7901; assay: Antiproliferative activity against human SGC-7901 cells assessed as inhibition of cell proliferation measured after 24 hrs by MTT assay; format: functional, cell-based; conditions: SGC-7901, 24 h
[5] = test system: SW-620; assay: Induction of apoptosis in human SW-620 cells assessed as necrotic cells at 80 nM measured after 24 hrs by Annexin V/PI staining based flow cytometry method (reference value: 3%); format: functional
[6] = test system: LoVo; assay: Induction of apoptosis in human LoVo cells assessed as increase in Bax levels at 20 to 80 nM measured after 24 hrs by Western blot assay; format: functional, cell-based; conditions: dose 20-80 nM
[7] = Cytotoxicity against human NCM460 cells assessed as reduction in cell viability measured after 24 hrs by MTT assay; format: cell-based
[8] = test system: HepG2; assay: Antiproliferative activity against human HepG2 cells assessed as inhibition of cell proliferation measured after 24 hrs by MTT assay; format: functional, cell-based; conditions: HepG2, 24 h
[9] = test system: LoVo; assay: Induction of apoptosis in human LoVo cells assessed as early apoptotic cells at 80 nM measured after 24 hrs by Annexin V/PI staining based flow cytometry method (reference value: 1.6%); format: functional
[10] = Cytotoxicity against human IOSE80 cells assessed as reduction in cell viability measured after 24 hrs by MTT assay; format: cell-based
[11] = test system: LoVo; assay: Induction of apoptosis in human LoVo cells assessed as early apoptotic cells at 20 nM measured after 24 hrs by Annexin V/PI staining based flow cytometry method (reference value: 1.6%); format: functional
[12] = test system: SW-620; assay: Induction of apoptosis in human SW-620 cells assessed as necrotic cells at 40 nM measured after 24 hrs by Annexin V/PI staining based flow cytometry method (reference value: 3%); format: functional
[13] = Cytotoxicity against human HPDE6c7 cells assessed as reduction in cell viability measured after 24 hrs by MTT assay; format: functional
[14] = test system: LoVo; assay: Induction of apoptosis in human LoVo cells assessed as increase in cleaved caspase-3 levels at 20 to 80 nM measured after 24 hrs by Western blot assay; format: functional, cell-based; conditions: dose 20-80 nM
[15] = test system: LoVo; assay: Induction of apoptosis in human LoVo cells assessed as necrotic cells at 40 nM measured after 24 hrs by Annexin V/PI staining based flow cytometry method (reference value: 1.3%); format: functional
[16] = test system: LoVo; assay: Induction of apoptosis in human LoVo cells assessed as early apoptotic cells at 40 nM measured after 24 hrs by Annexin V/PI staining based flow cytometry method (reference value: 1.6%); format: functional
[17] = test system: LoVo; assay: Induction of apoptosis in human LoVo cells assessed as late apoptotic cells at 40 nM measured after 24 hrs by Annexin V/PI staining based flow cytometry method (reference value: 1.6%); format: functional
[18] = test system: SW-620; assay: Induction of apoptosis in human SW-620 cells assessed as late apoptotic cells at 40 nM measured after 24 hrs by Annexin V/PI staining based flow cytometry method (reference value: 1.3%); format: functional
[19] = test system: SW-620; assay: Inhibition of cell migration in human SW-620 cells at 20 to 80 nM measured after 24 hrs by wound healing assay; format: functional, cell-based; conditions: dose 20-80 nM
[20] = test system: PANC-1; assay: Antiproliferative activity against human PANC-1 cells assessed as inhibition of cell proliferation measured after 24 hrs by MTT assay; format: functional, cell-based; conditions: PANC-1, 24 h
[21] = test system: SW-620; assay: Induction of apoptosis in human SW-620 cells assessed as increase in cleaved caspase-3 levels at 20 to 80 nM measured after 24 hrs by Western blot assay; format: functional, cell-based; conditions: dose 20-80 nM
[22] = test system: SW-620; assay: Cell cycle arrest in human SW-620 cells assessed as decrease of cells in G2/M phase at 20 to 80 nM measured after 24 hrs by PI staining based flow cytometry method; format: functional; conditions: dose 20-80 nM
[23] = test system: SW-620; assay: Induction of apoptosis in human SW-620 cells assessed as necrotic cells at 20 nM measured after 24 hrs by Annexin V/PI staining based flow cytometry method (reference value: 3%); format: functional
[24] = test system: A549; assay: Antiproliferative activity against human A549 cells assessed as inhibition of cell proliferation measured after 24 hrs by MTT assay; format: functional, cell-based; conditions: A549, 24 h
[25] = test system: LoVo; assay: Induction of apoptosis in human LoVo cells assessed as late apoptotic cells at 20 nM measured after 24 hrs by Annexin V/PI staining based flow cytometry method (reference value: 1.6%); format: functional
[26] = test system: SW-620; assay: Induction of apoptosis in human SW-620 cells assessed as viable cells at 40 nM measured after 24 hrs by Annexin V/PI staining based flow cytometry method (reference value: 94%); format: functional; conditions: read-out: Activity
[27] = test system: SW-620; assay: Antitumour activity against human SW-620 cells xenografted in Balb/c mouse assessed as increase in cleaved-caspase 3 expression in tumour at 5 mg/kg, ip measured after 21 days immunochemical staining method; format: functional, organism-based; conditions: time 21.0 day
[28] = test system: LoVo; assay: Antiproliferative activity against human LoVo cells assessed as inhibition of cell proliferation measured after 24 hrs by MTT assay; format: functional, cell-based
[29] = test system: LoVo; assay: Induction of apoptosis in human LoVo cells assessed as necrotic cells at 80 nM measured after 24 hrs by Annexin V/PI staining based flow cytometry method (reference value: 1.3%); format: functional
[30] = test system: SW-620; assay: Induction of apoptosis in human SW-620 cells assessed as viable cells at 20 nM measured after 24 hrs by Annexin V/PI staining based flow cytometry method (reference value: 94%); format: functional; conditions: read-out: Activity
[31] = test system: SW-620; assay: Antitumour activity against human SW-620 cells xenografted in Balb/c mouse assessed as decrease in Ki67 expression in tumour at 5 mg/kg, ip measured after 21 days immunochemical staining method; format: functional, organism-based; conditions: time 21.0 day
[32] = test system: LoVo; assay: Cell cycle arrest in human LoVo cells assessed as decrease of cells in G2/M phase at 20 to 80 nM measured after 24 hrs by PI staining based flow cytometry method; format: functional; conditions: dose 20-80 nM
[33] = Cytotoxicity against human GES1 cells assessed as reduction in cell viability measured after 24 hrs by MTT assay; format: cell-based
[34] = Toxicity in Balb/c mouse xenografted with human SW-620 cells assessed as changes in body weight at 5 mg/kg, ip measured after 21 days; format: organism-based; conditions: in vivo, 504 h, time 21 day
[35] = Cytotoxicity against human L02 cells assessed as reduction in cell viability measured after 24 hrs by MTT assay; format: cell-based
[36] = test system: LoVo; assay: Induction of apoptosis in human LoVo cells assessed as viable cells at 40 nM measured after 24 hrs by Annexin V/PI staining based flow cytometry method (reference value: 93.5%); format: functional; conditions: read-out: Activity
[37] = test system: SW-620; assay: Induction of apoptosis in human SW-620 cells assessed as early apoptotic cells at 40 nM measured after 24 hrs by Annexin V/PI staining based flow cytometry method (reference value: 1.7%); format: functional
[38] = test system: SW-620; assay: Induction of apoptosis in human SW-620 cells assessed as early apoptotic cells at 80 nM measured after 24 hrs by Annexin V/PI staining based flow cytometry method (reference value: 1.7%); format: functional

IC50 [4]: 0.12 µM
IC50 [8]: 0.02 µM
IC50 [20]: 0.09 µM
IC50 [24]: 0.09 µM
IC50 [28]: 0.03 µM
Compound: CC1(C)[C@H]2CC[C@]1(C)N(Cc1cn(-c3cccc(Br)c3)nn1)C(=O)C2
Activity [1]: 1.9%
Activity [2]: 29.3%
Activity [3]: 5.1%
Activity [5]: 3.7%
Activity [6]: Active
CC50 at 24 h [7]: 14.6 µM
Activity [9]: 7.4%
CC50 at 24 h [10]: 9.55 µM
Activity [11]: 3%
Activity [12]: 1.3%
CC50 [13]: 13.8 µM
Activity [14]: Active
Activity [15]: 1.6%
Activity [16]: 3.2%
Activity [17]: 5.4%
Activity [18]: 15.1%
inhibition [19]: Dose-Dependent Effect
Activity [21]: Active
Activity [22]: Active
Activity [23]: 2.5%
Activity [25]: 3.1%
viability at 0.04 µM [26]: 75.5%
Activity [27]: Active
Activity [29]: 6%
viability at 0.02 µM [30]: 83.9%
Activity [31]: Active
Activity [32]: Active
CC50 at 24 h [33]: 9.93 µM
Activity [34]: Non-Toxic
CC50 at 24 h [35]: 10.5 µM
viability at 0.04 µM [36]: 89.8%
Activity [37]: 8.1%
Activity [38]: 20.6%
